Converted amounts (≈) assume the structure as drawn.

By IC50 is commonly meant the concentration that gives 50% inhibition. In general, EC50 refers to the concentration at which the effect is half-maximal.

Experiment [1] deals with T1, Nonstructural protein 5 (Dengue virus, UniProt V5TFZ2). Description: Inhibition of DENV2 2'-O-methyltransferase using m7G*pppA-RNA as substrate. Also on record: species or system dengue virus type 2.
The target in experiment [2] is T1, Nonstructural protein 5. Description: Inhibition of DENV3 2'-O-methyltransferase using m7G*pppA-RNA as substrate. More on the design: species or system dengue virus type 3.
Experiment [3] is described as follows: Inhibition of DENV2 N7-methyltransferase using G*pppA-RNA as substrate. More on the design: species or system dengue virus type 2.
Experiment [4] can be described thus: Inhibition of DENV3 N7-methyltransferase using G*pppA-RNA as substrate. More on the design: species or system dengue virus type 3.
In experiment [5] the test system is dengue virus type 2. Description: Antiviral activity against DENV2 New Guinea C infected in HEK293 cells assessed as reduction in viral infection after 48 hrs by focus forming assay. Conditions: HEK293, 48 h. The class given is functional, organism-based.
Experiment [6] deals with dengue virus type 1. The experiment is described as follows: Antiviral activity against DENV1 02-20 infected in African green monkey Vero cells after 3 days by focus reduction assay. The class given is functional, organism-based. The note with it: 02-20, Vero, 72 h.
Experiment [7] relates to dengue virus type 2. Description: Antiviral activity against DENV2 16681 infected in African green monkey Vero cells after 3 days by focus reduction assay. The class given is functional, organism-based. The note with it: Dengue virus, 16681, Vero, 72 h.
Experiment [8] has as its system dengue virus type 3. Description: Antiviral activity against DENV3 00-40 infected in African green monkey Vero cells after 3 days by focus reduction assay. It counts as functional, organism-based. The note with it: 00-40, Vero, 72 h.
Experiment [9] has as its system dengue virus type 4. Description: Antiviral activity against DENV4 09-48 infected in African green monkey Vero cells after 3 days by focus reduction assay. The class given is functional, organism-based. Conditions: 09-48, Vero, 72 h.
The test system of experiment [10] is dengue virus type 2. The experiment is described as follows: Antiviral activity against DENV2 assessed as reduction in plaque formation. It counts as functional, organism-based.
In experiment [11] the test system is dengue virus type 2. Description: Antiviral activity against DENV2 infected in human HepG2 cells. The class given is functional, organism-based.
In experiment [12] the test system is dengue virus type 1. Description: Antiviral activity against DENV1 infected in African green monkey Vero cells assessed as virus yield reduction after 48 hrs by plaque assay. The class given is functional, organism-based.
Experiment [13] relates to dengue virus type 2. The experiment is described as follows: Antiviral activity against DENV2 infected in African green monkey Vero cells assessed as virus yield reduction after 48 hrs by plaque assay. It counts as functional, organism-based.
Experiment [14] deals with dengue virus type 3. Description: Antiviral activity against DENV3 infected in African green monkey Vero cells assessed as virus yield reduction after 48 hrs by plaque assay. It counts as functional, organism-based.
The subject of experiment [15] is dengue virus type 4. Description: Antiviral activity against DENV4 infected in African green monkey Vero cells assessed as virus yield reduction after 48 hrs by plaque assay. The class given is functional, organism-based.
In experiment [16] the test system is dengue virus type 2. The experiment is described as follows: Antiviral activity against DENV2 16681 infected in HEK293 cells after 72 hrs by luciferase reporter gene assay. The class given is functional, organism-based. Conditions: Dengue virus, 16681, HEK293, 72 h.
The test system of experiment [17] is dengue virus type 1. Description: Antiviral activity against DENV1 infected in African green monkey Vero cells after 30 mins by immunofluorescence assay. It counts as functional, organism-based. The note with it: 0.5 h.
The subject of experiment [18] is dengue virus type 2. The experiment is described as follows: Antiviral activity against DENV2 infected in African green monkey Vero cells after 30 mins by immunofluorescence assay. It counts as functional, organism-based. The note with it: 0.5 h.
Experiment [19] has as its system dengue virus type 3. The experiment is described as follows: Antiviral activity against DENV3 infected in African green monkey Vero cells after 30 mins by immunofluorescence assay. It counts as functional, organism-based. Conditions: 0.5 h.
Experiment [20] deals with dengue virus type 4. The experiment is described as follows: Antiviral activity against DENV4 infected in African green monkey Vero cells after 30 mins by immunofluorescence assay. It counts as functional, organism-based. The note with it: 0.5 h.
Experiment [21] relates to dengue virus type 1. Description: Antiviral activity against DENV1 infected in human HepG2 cells assessed as reduction in viral infection at 20 uM after 24 to 72 hrs by FFU assay relative to control. It counts as functional. Also on record: scale not given: the % may be the effect or the level left.
The test system of experiment [22] is dengue virus type 2. The experiment is described as follows: Antiviral activity against DENV2 infected in human HepG2 cells assessed as reduction in viral infection at 20 uM after 24 to 72 hrs by FFU assay relative to control. The class given is functional. Also on record: scale not given: the % may be the effect or the level left.
Experiment [23] deals with dengue virus type 3. Description: Antiviral activity against DENV3 infected in human HepG2 cells assessed as reduction in viral infection at 20 uM after 24 to 72 hrs by FFU assay relative to control. The class given is functional. More on the design: scale not given: the % may be the effect or the level left.
In experiment [24] the test system is dengue virus type 4. Description: Antiviral activity against DENV4 infected in human HepG2 cells assessed as reduction in viral infection at 20 uM after 24 to 72 hrs by FFU assay relative to control. Also on record: scale not given: the % may be the effect or the level left. The class given is functional.
Experiment [25] deals with dengue virus type 2. The experiment is described as follows: Antiviral activity against DENV2 infected in […] BHK-15 cells after 48 hrs by luciferase reporter gene assay. It counts as functional, organism-based. The note with it: BHK15, 48 h. For orientation: In a reporter assay the amount or activity of a reporter protein is the signal.
The subject of experiment [26] is dengue virus type 2. Description: Antiviral activity against DENV2 infected in BHK cells assessed as reduction in viral Yield at 20 uM after 48 hrs by fluorescence focus formation assay relative to control. The class given is functional. Also on record: scale not given: the % may be the effect or the level left.
Experiment [27] has as its system dengue virus type 2. The experiment is described as follows: Antiviral activity against DENV2 infected in human Huh7 cells assessed as reduction in viral Yield at 20 uM after 48 hrs by fluorescence focus formation assay relative to control. Also on record: scale not given: the % may be the effect or the level left. The class given is functional.
Experiment [28] relates to dengue virus type 1. The experiment is described as follows: Antiviral activity against DENV1 infected in mouse RAW 264.7 cells by MTT assay. It counts as functional, organism-based. The note with it: RAW264.7. For orientation: Tetrazolium assays rely on reduction of a dye to a coloured formazan, in cell work by metabolically active cells.
The subject of experiment [29] is dengue virus type 2. The experiment is described as follows: Antiviral activity against DENV2 infected in mouse RAW 264.7 cells by MTT assay. The class given is functional, organism-based. Conditions: RAW264.7.
The test system of experiment [30] is dengue virus type 3. The experiment is described as follows: Antiviral activity against DENV3 infected in mouse RAW 264.7 cells by MTT assay. It counts as functional, organism-based. Conditions: RAW264.7.
The test system of experiment [31] is dengue virus type 4. The experiment is described as follows: Antiviral activity against DENV4 infected in mouse RAW 264.7 cells by MTT assay. It counts as functional, organism-based. The note with it: RAW264.7.
The target of a further experiment is Genome polyprotein (dengue virus type 2, UniProt P29990). Description: Inhibition of Dengue virus NS2B-NS3 serine protease expressed in mouse RAW 264.7 cells. The class given is cell-based.
Genome polyprotein, sequence (P29990 1346-1475 limits assumed): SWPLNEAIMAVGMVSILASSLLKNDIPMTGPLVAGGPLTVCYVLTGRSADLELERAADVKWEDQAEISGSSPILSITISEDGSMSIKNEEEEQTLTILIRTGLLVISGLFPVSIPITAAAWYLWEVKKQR
Genome polyprotein, sequence (P29990 1476-2093 limits assumed): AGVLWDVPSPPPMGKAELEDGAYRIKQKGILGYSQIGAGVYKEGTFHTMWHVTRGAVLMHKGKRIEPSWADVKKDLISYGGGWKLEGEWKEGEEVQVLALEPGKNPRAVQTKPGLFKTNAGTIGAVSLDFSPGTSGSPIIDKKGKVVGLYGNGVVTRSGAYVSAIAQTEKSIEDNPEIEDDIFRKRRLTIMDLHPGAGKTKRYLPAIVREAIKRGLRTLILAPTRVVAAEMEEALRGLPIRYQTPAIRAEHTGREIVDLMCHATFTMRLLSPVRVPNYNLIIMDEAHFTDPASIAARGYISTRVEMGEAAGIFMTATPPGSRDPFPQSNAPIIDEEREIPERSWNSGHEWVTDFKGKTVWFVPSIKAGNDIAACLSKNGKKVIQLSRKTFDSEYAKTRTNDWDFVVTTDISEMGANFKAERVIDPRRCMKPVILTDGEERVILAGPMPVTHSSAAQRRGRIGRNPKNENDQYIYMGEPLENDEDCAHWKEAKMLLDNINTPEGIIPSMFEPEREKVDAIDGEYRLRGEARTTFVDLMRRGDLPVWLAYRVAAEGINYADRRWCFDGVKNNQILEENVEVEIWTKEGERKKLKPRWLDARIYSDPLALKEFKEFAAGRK
Experiment [32] concerns dengue virus type 2. Description: Antiviral activity against DENV2 infected in monkey LLC-MK2 cells. It counts as functional, organism-based.

T1 sequence (V5TFZ2 whole entry): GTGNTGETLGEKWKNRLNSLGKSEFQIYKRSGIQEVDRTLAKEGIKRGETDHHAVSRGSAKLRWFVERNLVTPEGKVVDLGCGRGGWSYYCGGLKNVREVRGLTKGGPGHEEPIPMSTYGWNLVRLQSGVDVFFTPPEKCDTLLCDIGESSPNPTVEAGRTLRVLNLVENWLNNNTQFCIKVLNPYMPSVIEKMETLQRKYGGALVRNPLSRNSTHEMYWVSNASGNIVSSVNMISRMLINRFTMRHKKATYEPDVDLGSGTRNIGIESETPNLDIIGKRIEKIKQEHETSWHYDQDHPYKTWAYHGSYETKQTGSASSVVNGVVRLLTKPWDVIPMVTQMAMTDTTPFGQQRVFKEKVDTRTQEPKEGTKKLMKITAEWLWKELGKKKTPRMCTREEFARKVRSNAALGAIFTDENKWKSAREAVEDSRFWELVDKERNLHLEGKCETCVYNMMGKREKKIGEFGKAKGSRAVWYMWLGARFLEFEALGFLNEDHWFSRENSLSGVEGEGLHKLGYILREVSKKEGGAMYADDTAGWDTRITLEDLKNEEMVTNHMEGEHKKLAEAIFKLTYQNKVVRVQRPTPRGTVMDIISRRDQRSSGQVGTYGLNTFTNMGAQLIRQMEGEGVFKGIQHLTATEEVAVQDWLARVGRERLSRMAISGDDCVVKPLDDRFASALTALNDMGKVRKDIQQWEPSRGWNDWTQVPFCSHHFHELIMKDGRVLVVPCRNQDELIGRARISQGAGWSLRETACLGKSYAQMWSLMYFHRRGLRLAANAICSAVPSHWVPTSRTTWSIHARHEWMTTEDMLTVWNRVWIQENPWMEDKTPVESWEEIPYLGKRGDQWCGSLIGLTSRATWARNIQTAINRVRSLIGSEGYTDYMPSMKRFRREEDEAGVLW

Regarding `CC1=C(Nc2c(C)cc(O)cc2O)C(=O)C=c2oc3c(c21)C(C)=C(Nc1c(C)cc(O)cc1O)C(=O)C=3`, the IC50 was in the range of 2.3 to 21 µM against Nonstructural protein 5 [1], 2.3 to 21 µM against Nonstructural protein 5 [2], 28 to 32 µM in [3] and 28 to 32 µM in experiment [4].

`Nc1c(C(=O)Nc2nc(-c3ccccc3)cs2)sc2nc3c(cc12)CN(c1ccccc1)CC3`: in the experiment on dengue virus type 2 [5], the IC50 was 0.025 µM.

For the compound `CC(C)C[C@H]1C(=O)N2CCC[C@H]2[C@]2(O)O[C@](NC(=O)[C@@H]3C=C4c5cccc6[nH]c(Br)c(c56)C[C@H]4N(C)C3)(C(C)C)C(=O)N12` [BROMOCRIPTINE], the EC50 was 1.6 µM with dengue virus type 1 [6], 0.8 to 1.2 µM with dengue virus type 2 [7], 0.8 to 1.2 µM with dengue virus type 3 [8] and 0.8 to 1.2 µM in the experiment on dengue virus type 4 [9].

On to `COc1cc(/C=C/C(=O)CC(=O)/C=C/c2ccc(O)c(OC)c2)ccc1O` [CURCUMIN], for which, in the experiment with dengue virus type 2 [10], the IC50 amounted to 11.5 µM.

With `COc1ccc([C@@H]2CC(=O)c3c(O)cc(O[C@@H]4O[C@H](CO[C@@H]5OC[C@](O)(CO)[C@H]5O)[C@@H](O)[C@H](O)[C@H]4O)cc3O2)cc1`, half-maximal inhibition in the experiment on dengue virus type 2 [11] (IC50) required 13.1 µg/mL (≈ 22.6 µM).

For `COc1ccc2c3ccnc(C)c3n(C)c2c1`, the EC50 in the experiment with dengue virus type 1 [12], with dengue virus type 2 [13], with dengue virus type 3 [14] and in the experiment with dengue virus type 4 [15] was 3.2 to 49.5 µM in each case.

`CN1CCN(C2Cc3ccc(F)cc3Sc3ccc(O)cc32)CC1` (stereo not drawn): the IC50 in the experiment on dengue virus type 2 [16] turned out to be 1.2 µM.

As to `C/C(=N\NC(N)=S)[C@H](Cc1c[nH]c2ccccc12)NC(=O)c1ccccc1`, the EC50 in the experiment on dengue virus type 1 [17], in the experiment with dengue virus type 2 [18], in the experiment on dengue virus type 3 [19] and in the experiment with dengue virus type 4 [20] was 30 to 50 µM throughout.

Turning to `COc1c(O)cc2oc3cc(O)c(CC=C(C)C)c(O)c3c(=O)c2c1CC=C(C)C` [MANGOSTIN], the Activity in the experiment on dengue virus type 1 [21], in the experiment on dengue virus type 2 [22], with dengue virus type 3 [23] and in the experiment on dengue virus type 4 [24] was 47 - 55% each time. Further, in the experiment with dengue virus type 2 [25], a half-maximal effect (EC50) was put at 10 µM.

Take `C=CCc1ccc(O)c(-c2ccc(O)c(CC=C)c2)c1` [HONOKIOL]: the Activity in the experiment with dengue virus type 2 [26] and in the experiment with dengue virus type 2 [27] was >90% throughout.

Consider `CC(=O)O[C@H]1CC(C)(C)C(=C=C/C(C)=C/C=C/C=C/C=C(C)/C=C2C=C(/C=C/[C@@]34O[C@]3(C)C[C@@H](O)CC4(C)C)C(=O)O/2)[C@](C)(O)C1`, for which the EC50 with dengue virus type 1 [28] is 5.84 to 7.62 µM; in the experiment with dengue virus type 2 [29], 5.84 to 7.62 µM; in the experiment with dengue virus type 3 [30], 5.84 to 7.62 µM; in the experiment with dengue virus type 4 [31] it was 5.84 to 7.62 µM; on Genome polyprotein it was 8.5 µM.

On to `C=C(C)[C@@H]1CC[C@]2(C)CC[C@]3(C)[C@H](CC[C@@H]4[C@@]5(C)CC[C@H](O)C(C)(C)[C@@H]5CC[C@]43C)[C@@H]12` [LUPEOL], for which the EC50 with dengue virus type 2 [32] was 9.77 µM.

These data come from ChEMBL document CHEMBL4396891, “Recent update on anti-dengue drug discovery” (Eur J Med Chem, 2019).
